The results in this text go back to patent publication US11014912B2, “Cyanopyrrolidine derivatives with activity as inhibitors of USP30” (MISSION THERAPEUTICS LIMITED, priority 2016, dated 2021).

Structures are written as SMILES. pIC50: −log10 of the molar value.

The test deals with USP30 (Homo sapiens (Human), UniProt Q70CQ3). Put plainly: USP30 biochemical IC50 assay. Particulars: fluorescence polarisation, TAMRA labelled peptide linked to ubiquitin substrate; enzyme and compound incubated 30 min at room temp; read after 2 h; read-out: IC50 range. The protocol: USP30 Biochemical IC50 Assay
Chain of USP30 (Q70CQ3 57-517): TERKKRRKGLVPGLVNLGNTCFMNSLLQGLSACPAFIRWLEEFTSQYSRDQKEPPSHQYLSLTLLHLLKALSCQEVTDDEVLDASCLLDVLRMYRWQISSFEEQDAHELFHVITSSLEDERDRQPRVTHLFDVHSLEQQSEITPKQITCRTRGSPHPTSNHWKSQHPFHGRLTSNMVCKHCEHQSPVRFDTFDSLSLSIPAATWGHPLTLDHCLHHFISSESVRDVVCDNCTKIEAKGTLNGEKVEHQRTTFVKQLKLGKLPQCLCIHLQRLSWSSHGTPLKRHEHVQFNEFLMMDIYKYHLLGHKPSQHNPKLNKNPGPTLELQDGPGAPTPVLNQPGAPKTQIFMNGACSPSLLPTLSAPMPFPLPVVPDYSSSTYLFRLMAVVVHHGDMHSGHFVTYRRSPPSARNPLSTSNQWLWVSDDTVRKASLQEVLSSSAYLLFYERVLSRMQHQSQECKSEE
Dilution plates were prepared at 21 times the final concentration (2100 μM for a final concentration of 100 μM) in 50% DMSO in a 96-well polypropylene V-bottom plate (Greiner #651201). A typical 8-point dilution series would be 100, 30, 10, 3, 1, 0.3, 0.1, 0.03 μM final. Reactions were performed in duplicate in black 384 well plates (small volume, Greiner 784076) in a final reaction volume of 21 μl. Either 1 μl of 50% DMSO or diluted compound was added to the plate. USP30 was diluted in reaction buffer (40 mM Tris, pH 7.5, 0.005% Tween 20, 0.5 mg/ml BSA, 5 mM beta-mercaptoethanol) to the equivalent of 0.05 μl/well and 10 μl of diluted USP30 was added to the compound. Enzyme and compound were incubated for 30 min at room temp. Reactions were initiated by the addition of 50 nM of TAMRA labelled peptide linked to ubiquitin via an iso-peptide bond as fluorescence polarisation substrate. Reactions were read immediately after addition of substrate and following a 2 h incubation at room temperature. Readings were performed on a Pherastar Plus (BMG Labtech). A Excitation 540 nm; A Emission 590 nm.
Take `N#CN1CC[C@H](CC(=O)Nc2cc(-c3ccc(Cl)cc3)no2)C1` [Example 35, (R)—N-(3-(4-Chlorophenyl)isoxazol-5-yl)-2-(1-cyanopyrrolidin-3-yl)acetamide]: the pIC50 – broadly, −log10 of the IC50, conventionally taken in molar units – was 6.00 to 7.00.

For the compound `N#CN1CC[C@H](CC(=O)Nc2cc(-c3cccc(Cl)c3)no2)C1` [Example 36, (R)—N-(3-(3-Chlorophenyl)isoxazol-5-yl)-2-(1-cyanopyrrolidin-3-yl)acetamide], the pIC50 was 8.00 to 9.00.

As to `COc1cccc(-c2cc(NC(=O)C[C@@H]3CCN(C#N)C3)on2)c1` [Example 37, (S)—N-(3-(3-Methoxyphenyl)isoxazol-5-yl)-2-(1-cyanopyrrolidin-3-yl)acetamide], the pIC50 was 6.00 to 7.00.

As to `COc1ccc(C2CN(C(=O)C[C@@H]3CCN(C#N)C3)C2)cc1` [Example 38, (S)-3-(2-(3-(4-Methoxyphenyl)azetidin-1-yl)-2-oxoethyl)pyrrolidine-1-carbonitrile], the pIC50 is 7.00 to 8.00.

In the case of `COc1ccc(C2CN(C(=O)C[C@@H]3CCN(C#N)C3)C2)cc1-c1ccn[nH]1` [Example 39, (S)-3-(2-(3-(4-Methoxy-3-(1H-pyrazol-5-yl)phenyl)azetidin-1-yl)-2-oxoethyl)pyrrolidine-1-carbonitrile], the pIC50 was 7.00 to 8.00.

As to `COc1ccc(C2CN(C(=O)C[C@@H]3CCN(C#N)C3)C2)cc1-c1ccnn1C` [Example 40, (S)-3-(2-(3-(4-Methoxy-3-(1-methyl-1H-pyrazol-5-yl)phenyl)azetidin-1-yl)-2-oxoethyl)-pyrrolidine-1-carbonitrile], the pIC50 is 7.00 to 8.00.

With `N#CN1CCC(CC(=O)Nc2nnc(-c3ccccc3)s2)C1` (centres unmarked) [Example 41, 2-(1-cyanopyrrolidin-3-yl)-N-(5-phenyl-1,3,4-thiadiazol-2-yl)acetamide], the pIC50 was 6.00 to 7.00.

Consider `N#CN1CC[C@@H](CC(=O)Nc2cc(-c3cccc(Cl)c3)no2)C1` [Example 42, (S)-N-(3-(3-chlorophenyl)isoxazol-5-yl)-2-(1-cyanopyrrolidin-3-yl)acetamide], for which the pIC50 is 7.00 to 8.00.

Regarding `COc1cccc(-c2cc(NC(=O)C[C@H]3CCN(C#N)C3)on2)c1` [Example 43, (R)-2-(1-cyanopyrrolidin-3-yl)-N-(3-(3-methoxyphenyl)isoxazol-5-yl)acetamide], the pIC50 was 7.00 to 8.00.

In the case of `N#CN1CCC(CC(=O)Nc2cc3ccccn3n2)C1` (centres unmarked) [Example 44, 2-(1-cyanopyrrolidin-3-yl)-N-(pyrazolo[1,5-a]pyridin-2-yl)acetamide], the pIC50 was 5.00 to 6.00.

Take `N#CN1CCC(CC(=O)Nc2cc(C(F)(F)F)ccn2)C1` (centres unmarked) [Example 45, 2-(1-cyanopyrrolidin-3-yl)-N-(4-(trifluoromethyl)pyridin-2-yl)acetamide]: the negative-log IC50 (pIC50) was 6.00 to 7.00.

`N#Cc1ccc(NC(=O)CC2CCN(C#N)C2)nc1` (centres unmarked) [Example 46, N-(5-cyanopyridin-2-yl)-2-(1-cyanopyrrolidin-3-yl)acetamide]: the pIC50 was 5.00 to 6.00.

As for `N#CN1CCC(CC(=O)NC2CN(c3ccccn3)C2)C1` (centres unmarked) [Example 47, 2-(1-cyanopyrrolidin-3-yl)-N-(1-(pyridin-2-yl)azetidin-3-yl)acetamide], the pIC50 is 6.00 to 7.00.

As for `N#CN1CC[C@@H](CC(=O)Nc2nnc(-c3cccc(Cl)c3)o2)C1` [Example 48, (S)-N-(5-(3-chlorophenyl)-1,3,4-oxadiazol-2-yl)-2-(1-cyanopyrrolidin-3-yl)acetamide], the pIC50 is 6.00 to 7.00.

For the compound `N#Cc1cccc(-c2nnc(NC(=O)CC3CCN(C#N)C3)o2)c1` (centres unmarked) [Example 49, N-(5-(3-cyanophenyl)-1,3,4-oxadiazol-2-yl)-2-(1-cyanopyrrolidin-3-yl)acetamide], the pIC50 is 6.00 to 7.00.

On to `C[C@H](C(=O)Nc1cc(-c2cccc(Cl)c2)no1)[C@@H]1CCN(C#N)C1` [Example 50, (S)-N-(3-(3-chlorophenyl)isoxazol-5-yl)-2-((S)-1-cyanopyrrolidin-3-yl)propanamide], for which the pIC50 is 8.00 to 9.00.

`N#Cc1cccc(-c2cc(NC(=O)C[C@H]3CCN(C#N)C3)on2)c1` [Example 51, (R)-N-(3-(3-cyanophenyl)isoxazol-5-yl)-2-(1-cyanopyrrolidin-3-yl)acetamide]: the pIC50 is 8.00 to 9.00.
